Data set [1] concerns the target T1, human P2X7 (Homo sapiens, UniProt Q99572).
T1 construct: 1321N1 cells stably expressing the full length human P2X7 gene (1321N1-hP2X7)
T1 sequence (Q99572 1-595): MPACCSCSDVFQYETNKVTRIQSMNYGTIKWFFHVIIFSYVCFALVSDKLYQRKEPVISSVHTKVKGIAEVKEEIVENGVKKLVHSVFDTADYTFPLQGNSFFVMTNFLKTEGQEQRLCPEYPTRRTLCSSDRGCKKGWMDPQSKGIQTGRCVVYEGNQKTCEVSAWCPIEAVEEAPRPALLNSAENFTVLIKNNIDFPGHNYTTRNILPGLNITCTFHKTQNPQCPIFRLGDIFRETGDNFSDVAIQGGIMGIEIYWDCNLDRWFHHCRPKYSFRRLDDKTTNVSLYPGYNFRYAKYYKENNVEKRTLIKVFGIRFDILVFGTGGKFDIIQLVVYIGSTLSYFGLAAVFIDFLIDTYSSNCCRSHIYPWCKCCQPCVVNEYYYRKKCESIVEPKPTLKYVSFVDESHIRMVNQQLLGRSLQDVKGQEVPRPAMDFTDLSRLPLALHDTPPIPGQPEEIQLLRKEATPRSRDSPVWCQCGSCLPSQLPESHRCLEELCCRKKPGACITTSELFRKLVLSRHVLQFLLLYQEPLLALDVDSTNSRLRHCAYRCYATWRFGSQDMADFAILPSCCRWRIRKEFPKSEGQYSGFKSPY
The data set is described as follows: Intracellular Calcium Flux (FLIPR) Assay. The conditions noted are these: 1321N1 cells stably expressing full length human P2X7; agonist 100 μM BzATP; fluo-3 calcium flux; read-out: FLIPR pIC50 hP2X7-1321n1 (converted). Format: cell-based. The method, then: Stock solutions of compounds were prepared from powders as a 10 mM DMSO stock solution. These solutions were stored at RT during the two week period of these experiments to prevent freeze-thaw of the DMSO stocks. The DMSO stocks were added to the appropriate assay buffer at a concentration of 10 μM, and then diluted serially to the final concentrations that were tested. No observable precipitate was formed at any time during this process. The aqueous solutions of compounds as well as ATP (Sigma A7699) and BzATP (Sigma B6396) were prepared fresh for each day of experiment.
1321N1 cells stably expressing the full length human P2X7 gene (1321N1-hP2X7) and HEK293 cells stably expressing the full length rat P2X7 gene (HEK293-rP2X7) were obtained from the Roche Cell Culture Facility. 1321N1-hP2X7 cells were grown in Dulbecco's Modified Eagle's Medium (DMEM) high glucose supplemented with 10% FBS and 250 μg/mL G418. HEK293-rP2X7 cells were grown in DMEM/F-12 supplemented with 10% FBS, 1 mM CaCl2, 2 mM MgCl2, 2 mM L-Glutamine and 500 μg/ml G418. Cells were split such that they never became >70% confluent.
On the day prior to the experiment, 1321N1-hP2X7 or HEK293-rP2X7 cells were released into suspension with calcium-free PBS+Versene and washed by centrifugation with calcium-free PBS to remove the Versene. Cells were resuspended in growth medium at a density of 2.5×10^5 cells/mL and seeded into black walled, clear bottom 96 well plates (50,000 cells/well) approximately 18 hr prior to intracellular calcium flux experiments.
On the day of the experiment, plates were washed with FLIPR buffer (calcium- and magnesium-free Hank's Balanced Salt Solution (HBSS) supplemented with 10 mM Hepes, 2.5 mM probenecid and 2 mM calcium chloride) using a BIO-TEK 96 channel plate washer and incubated with […] fluo-3 dye at 37° C. for one hr. The dye was then removed by plate washing and the cells were allowed to equilibrate for 20 min at room temperature with antagonist or vehicle (FLIPR buffer). Agonist (100 μM BzATP final concentration for hP2X7; 5 μM BzATP final concentration or rP2X7) was added online with the FLIPR and fluorescence measurements made at 1 sec intervals for 60 sec followed by 3 sec intervals for a further 4 min (5 min total). A final addition of 5 μM ionomycin was made and the maximal BzATP-evoked fluorescence normalized to the maximal ionomycin-evoked fluorescence.

This is an account of results in patent US20120149718A1, “Amido Compounds” (priority 2010, published 2012).

For `COCc1cnc(NC(=O)C(Cc2ccc(F)cc2)c2ccc(S(C)(=O)=O)cc2)cn1` (centres unmarked) [Compound I-21, 3-(4-Fluoro-phenyl)-2-(4-methanesulfonyl-phenyl)-N-(5-methoxymethyl-pyrazin-2-yl)-propionamide], the melting point (in general, the temperature, or range, at which the solid turns liquid) lay within 69 to 82.3 °C. In addition, the IC50 in data set [1] is 646 nM.
`O=C(NCCO)c1ccc(C(Cc2ccc(F)cc2)C(=O)Nc2nc3ccccc3o2)cc1` (centres unmarked) [Compound I-33, 4-[1-(Benzooxazol-2-ylcarbamoyl)-2-(4-fluoro-phenyl)-ethyl]-N-(2-hydroxy-ethyl)-benzamide] yielded a melting point of 134 to 136 °C. Moreover, the IC50 in data set [1] is 347 nM.
Take `CS(=O)(=O)c1ccc(C(Cc2ccc(F)cc2)C(=O)Nc2nc3ncccc3o2)cc1` (centres unmarked) [Compound I-18, 3-(4-Fluoro-phenyl)-2-(4-methanesulfonyl-phenyl)-N-oxazolo[4,5-b]pyridin-2-yl-propionamide]: the melting point fell in the range of 261 to 263.7 °C. The IC50 in data set [1] is 234 nM.
As to `CS(=O)(=O)c1ccc(C(Cc2ccc(F)cc2)C(=O)Nc2cncc(Cl)n2)cc1` (centres unmarked) [Compound I-25, N-(6-Chloro-pyrazin-2-yl)-3-(4-fluoro-phenyl)-2-(4-methanesulfonyl-phenyl)-propionamide], the melting point lay in the range of 191.6 to 192.7 °C. In data set [1], the IC50 was 851 nM.
`CS(=O)(=O)c1ccc(C(Cc2cccc(F)c2)C(=O)Nc2cnc(CO)cn2)cc1` (centres unmarked) [Compound I-26, 3-(3-Fluoro-phenyl)-N-(5-hydroxymethyl-pyrazin-2-yl)-2-(4-methanesulfonyl-phenyl)-propionamide] registered a melting point of 82.8 to 98.7 °C. The IC50 in data set [1] was 339 nM.
`CS(=O)(=O)c1cccc(C(Cc2ccc(F)cc2)C(=O)Nc2nc3ccccc3o2)c1` (centres unmarked) [Compound I-12, N-Benzooxazol-2-yl-3-(4-fluoro-phenyl)-2-(3-methanesulfonyl-phenyl)-propionamide] displayed a melting point of 99 to 100 °C. In data set [1], the IC50 is 741 nM.
Take `O=C(Nc1nc2ccccc2o1)C(Cc1ccc(F)cc1)c1ccc(F)cc1F` (centres unmarked) [Compound I-29, N-Benzooxazol-2-yl-2-(2,4-difluoro-phenyl)-3-(4-fluoro-phenyl)-propionamide]: the melting point was in the range of 177.5 to 177.9 °C. In addition, the IC50 in data set [1] is 501 nM.
